Measured values as given in US20240254220A1, “COMBINED THERAPY USING ANTI-CD300C ANTIBODY” (CentricsBio, Inc., priority 2021, published 2024).

Legend:
[1] = test system: A549 (human lung cancer cell line); assay: A549 cell proliferation analysis, anti-CD300c antibody with chemotherapeutic agent; type: cell-based; conditions: 5 days
Description: In order to identify the cancer cell growth inhibitory effect by combined treatment with an anti-CD300c monoclonal antibody and sorafenib, cell proliferation analysis was performed using A549 (human lung cancer cell line). Into a 96-well plate, 20,000 cancer cells were inoculated and treated with 10 ug/mL anti-CD300c monoclonal antibody and 9 μM sorafenib, followed by incubation for 5 days. After the incubation, 10 μL of CCK-8 (DOJINDO) was added to each well, followed by incubation for 4 hours, and the absorbance was measured at 450 nm.
In order to identify the cancer cell growth inhibitory effect by combined treatment with an anti-CD300c monoclonal antibody and gemcitabine, cell proliferation analysis was performed using A549 (human lung cancer cell line). The cells were treated with the anti-CD300c antibody in combination with 1.9 μM gemcitabine for 5 days, and then 10 μL of CCK-8 (DOJINDO) was added to each well, followed by incubation for 4 hours, and the absorbance was measured at 450 nm.
In order to identify the cancer cell growth inhibitory effect by combined treatment with an anti-CD300c monoclonal antibody and paclitaxel, cell proliferation analysis was performed using A549 (human lung cancer cell line). The cells were treated with the anti-CD300c monoclonal antibody in combination with paclitaxel and incubated for 5 days. Thereafter, 10 μL of CCK-8 (DOJINDO) was added to each well, followed by incubation for 4 hours, and the absorbance was measured at 450 nm.

[2] = test system: MKN45, IM95, HT-29, A549, HCT116, MDA-MB-231, HepG2 cancer cell lines; assay: Cancer cell apoptosis resistance (rapamycin, Annexin V / PI fluorescence); type: cell-based, human; conditions: 8 hours treatment, then rapamycin 48 hours
Text: (§1) In order to identify whether the combined treatment with an anti-CD300c monoclonal antibody and a chemotherapeutic agent can inhibit cancer cell apoptosis resistance, MKN45 (human gastric cancer cell line), IM95 (human gastric cancer cell line), HT-29 (human colon cancer cell line), A549 (human lung cancer cell line), HCT116 (human colon cancer cell line), MDA-MB-231 (human breast cancer cell line), and HepG2 (human liver cancer cell line) were used. Each type of cancer cells were inoculated at 1×10^4 into a 96-well plate and incubated for 16 hours. The incubated cells were treated with an anti-CD300c monoclonal antibody and a chemotherapeutic agent in combination for 8 hours, and then treated with rapamycin for 48 hours. The degree of survival of cancer cells was identified by fluorescence analysis using Annexin V and propidium iodide (PI).
as §1, with “gemcitabine” for “a chemotherapeutic agent”, “The incubated cells were treated with an anti-CD300c monoclonal antibody and a chemotherapeutic agent in combination for 8 hours, and then treated with rapamycin for 48 hours.” left out
In order to identify whether the combined treatment with an anti-CD300c monoclonal antibody and paclitaxel can inhibit cancer cell apoptosis resistance, MKN45 (human gastric cancer cell line), IM95 (human gastric cancer cell line), HT-29 (human colon cancer cell line), A549 (human lung cancer cell line), HCT116 (human colon cancer cell line), MDA-MB-231 (human breast cancer cell line), and HepG2 (human liver cancer cell line) were used. […] The degree of survival of cancer cells was identified by fluorescence analysis using Annexin V and propidium iodide (PI).

[3] = test system: CT26 cells (mouse colon cancer cell line); assay: In vivo anticancer effect in huCD34-NSG mice bearing CT26 cells; set-up: species or system humanized mouse models (huCD34-NSG mice); conditions: antibody 25 mg/kg, chemotherapeutic agents 10 mg/kg, i.p. twice a week, four times
Description: In order to identify the anticancer effect under in vivo conditions by the combined treatment with an anti-CD300c monoclonal antibody and a chemotherapeutic agent, human solid tumor xenograft models were prepared by subcutaneous injection of 1×10^6 CT26 cells (mouse colon cancer cell line) to humanized mouse models (huCD34-NSG mice). From 3 days after the administration of cancer cells, the mice were divided into a group administered 25 mg/kg anti-CD300c monoclonal antibody alone, groups administered the chemotherapeutic agents sorafenib, gemcitabine, and paclitaxel at 10 mg/kg for each, groups administered an anti-CD300c monoclonal antibody and chemotherapeutic agents, and a non-administered group. After the intraperitoneal administration with the anti-CD300c monoclonal antibody and each of the chemotherapeutic agents alone or in combination twice a week, a total of four times, the solid tumor tissue was isolated from the mice to measure the size thereof to identify the therapeutic effect of the anti-CD300c monoclonal antibody alone and the effects of the combined administration with existing chemotherapeutic agents.

[4] = test system: A549 cells; assay: A549 growth inhibition by chemotherapeutic agents (concentration selection); type: cell-based, human; conditions: A549, serial dilutions, 5 days, CCK-8
Description: First, sorafenib was dissolved in dimethyl sulfoxide.
First, gemcitabine was dissolved in dimethyl sulfoxide.
First, paclitaxel was dissolved in […].

[5] = test system: MKN45, IM95, HT-29, A549, HCT116, MDA-MB-231, HepG2 cancer cell lines; assay: Cancer cell migration/infiltration (scratch wound); type: cell-based, human; conditions: 24 hours
Text: (§2) In order to identify the cancer cell migration/infiltration inhibitory effect by the combined treatment with an anti-CD300c monoclonal antibody and sorafenib, MKN45 (human gastric cancer cell line), IM95 (human gastric cancer cell line), HT-29 (human colon cancer cell line), A549 (human lung cancer cell line), HCT116 (human colon cancer cell line), MDA-MB-231 (human breast cancer cell line), and HepG2 (human liver cancer cell line) were used. Into a 6-well plate, 1×10^5 cancer cells were inoculated and incubated for 16 hours, and then each well was wounded by scratching with a pipette tip. The detached cells were removed by washing with medium, and then treated with an anti-CD300c monoclonal antibody for 8 hours. Thereafter, observation was performed for 24 hours. On the basis of the area of the wound formed by scratching with the pipette tip, the migration distance of cancer cells was measured, and this distance was calculated as a percentage (%) to identify the degree of migration inhibition.
as §2, with “migration/invasion” for “migration/infiltration”, “gemcitabine, MKN45,” for “sorafenib, MKN45 (human gastric cancer cell line),”, “inhibition. […]” for “inhibition.”

SMILES | inhibition at 9 µM ([1]; Homo sapiens, 120 h, A549, antibody 10 ug/mL, sorafenib 9 μM, read-out: cancer cell growth inhibitory rate) | increase in MFI compared with hIgG1 isotype control group ([2]; sorafenib experiment) | tumor inhibition rate [3] | cancer cell growth inhibitory effect [4] | degree of migration inhibition ([5]; sorafenib experiment) | cancer cell growth inhibitory rate ([1]; A549, paclitaxel experiment) | increase in MFI compared with hIgG1 isotype control group ([2]; paclitaxel experiment) | degree of migration inhibition ([5]; paclitaxel experiment) | inhibition at 1.9 µM ([1]; Homo sapiens, 120 h, A549, gemcitabine 1.9 μM, read-out: cancer cell growth inhibitory rate) | increase in MFI compared with hIgG1 isotype control group ([2]; gemcitabine experiment) | degree of migration inhibition ([5]; gemcitabine experiment)
CNC(=O)c1cc(Oc2ccc(NC(=O)Nc3ccc(Cl)c(C(F)(F)F)c3)cc2)ccn1 [sorafenib] | 45% | 21% | 22% | concentration-dependent cancer cell growth inhibitory effect | 32% | – | – | – | – | – | –
CC(=O)O[C@H]1C(=O)[C@@]2(C)[C@H]([C@H](OC(=O)c3ccccc3)[C@]3(O)C[C@H](OC(=O)[C@H](O)[C@@H](NC(=O)c4ccccc4)c4ccccc4)C(C)=C1C3(C)C)[C@]1(OC(C)=O)CO[C@@H]1C[C@@H]2O [paclitaxel] | – | – | 21% | concentration-dependent cancer cell growth inhibitory effect | – | 24% | 19% | 20% | – | – | –
Nc1ccn([C@@H]2O[C@H](CO)[C@@H](O)C2(F)F)c(=O)n1 [gemcitabine] | – | – | 25% | concentration-dependent cancer cell growth inhibitory effect | – | – | – | – | 38% | 21% | 28%
